Key:
[1] = tested on: ovariectomized rats; experiment: Liver levels and biliary secretion of α-tocopherol after 8 weeks of dietary carnitine (bile duct cannulation); assay type: in vivo, rat
Method: Thirty two 10 weeks old female Sprague-Dawley rats weighing 214±6 g (Harlan Sprague Dawley, Indianapolis, Ind.) were placed individually in plastic cages with stainless steel wire-bottoms in a windowless room at a controlled temperature of about 23° C. and subjected to a light-dark cycle with the light period from 3:30 pm to 3:30 am and the dark period from 3:30 am to 3:30 pm. The rats were acclimatized for 1 week with free access to the deionized water and ad libitum fed a zinc-adequate AIN-93G diet (Reeves et al., J Nutr 1993;123:1939-1951) formulated by Dyets, Inc. (Bethlehem, Pa., USA) with 7% soybean oil as a fat source. Zinc carbonate was added to provide the desired levels of zinc. At the end of the first week, at the average body weight of 230±12 g, the rats were ovariectomized under halothane anesthesia after 16 hours of fasting. Initial blood samples (week 0) were taken from 5 randomly selected rats. After 1 week of postoperative recovery, rats were divided into the following two experimental groups by matching body weight: One group of rats was fed a zinc-adequate AIN-93G diet containing α-tocopherol-stripped soybean oil; 150 ppm Sipernat® 50, which is hydrated silica available from Degussa Corporation, Ridgefield, N.J.; and supplemented with 150 mg/kg L-carnitine. A control group was fed the same diet, except that the 150 mg/kg of L-carnitine was substituted with 150 ppm of α-D-glucose. The normal food intake for both groups was around 15 g/day/rat. Blood samples were taken at the beginning of 1, 3, 5, 8 weeks from 5 randomly selected rats in each group. At the end of the 8th week, bile duct cannulation was performed on the rats in both groups having an average body weight of about 340±15 g. Cannulation of the common bile duct was performed, following 16 hours food deprivation, as described previously (Noh et al., J Nutr Biochem 1999;10:110-117). Briefly, after performing a midline abdominal incision, the common bile duct was cannulated with PE-10 tubing (Clay Adams, Sparks, Md.) under halothane anesthesia (2.0% halothane in 2.01 oxygen/min). A silicone feeding catheter (Silastic medical grade tubing, Dow Coming, Midland, Mich.) was inserted into the gastric fundus region. The infusion catheter was exteriorized alongside the bile cannula through the right flank. Cannulated rats were placed in individual restraining cages and allowed to recover for at least 20 hours in a warm recovery chamber kept at about 30° C. Immediately after surgery, glucose-phosphate buffered saline (PBS) (in mmol/l: 277 glucose, 6.75 Na2HPO4, 16.5 NaH2PO4, 115 NaCl, and 5 KCI; pH 6.7) was continuously infused through the duodenal cannula at 3.0 ml/h via a syringe pump (Harvard Apparatus, Model 935, South Natick, Mass.). After postoperative recovery, rats were infused with a lipid emulsion containing 565 μmol triolein (95%, Sigma Chemical, St. Louis, Mo.), and 396 μmol sodium taurocholic acid in 24 ml of PBS. Bile was collected hourly for 8 hours in pre-weighed conical centrifuge tubes containing 30 μg of n-propyl gallate in ice filled beakers. After bile collection, the rats were killed by cervical dislocation, and the livers were dissected. The samples were stored at about −70° C. until analysis. Lipids were extracted by Folch's method (Folch et al., J Biol Chem 1957;226:497-509). The content of α-tocopherol was determined as described by Zaspel et al. (Anal. Biochem. 1983;130:146-150). […]

[2] = tested on: ovariectomized rats; experiment: Lymphatic absorption of α-tocopherol after 5 weeks of dietary carnitine (mesenteric lymph duct cannulation); assay type: in vivo, rat; settings: carnitine supplemented diet for 5 weeks
Method: Thirty two 10 weeks old female Sprague-Dawley rats weighing 208±8 g (Harlan Sprague Dawley, Indianapolis, Ind.) were housed and fed as described in Example 1. At the end of second week, at the average body weight of 240±9 g, the rats were ovariectomized under halothane anesthesia after 16 hours fasting. Initial (0 week) blood samples were taken from 6 randomly selected rats.
Immediately after surgery, rats were divided into the following two experimental groups as described in Example 1, i.e., one group was fed a diet supplemented with carnitine, and one control group. The normal food intake for both groups was about 15-16 g/day/rat.
At the end of the 5th week, Lymph duct cannulation was performed on each group having an average body weight of 340±15 g. Cannulation of the mesenteric lymph duct was performed, following 16 hours food deprivation, as described previously (Noh et al., supra). Briefly, after a midline abdominal incision was performed, the mesenteric lymph duct was cannulated with polyethylene tubing (SV 31 tubing, Dural Plastics, Auburn, Australia) by securing with a drop of cyanoacrylate glue (Krazy Glue, Columbus, Ohio) under halothane anesthesia (2.0% halothane in 2.01 oxygen/min). A silicone feeding catheter (Silastic medical grade tubing, Dow Coming, Midland, Mich.) was inserted into the gastric fundus region. The infusion catheter was exteriorized alongside the lymph cannula through the right flank. Cannulated rats were placed in individual restraining cages and allowed to recover for at least 20 hours in a warm recovery chamber kept at about 30° C. Immediately following surgery, glucose-phosphate buffered saline (PBS) (in mmol/l: 277 glucose, 6.75 Na2HPO4, 16.5 NaH2PO4, 115 NaCl, and 5 KCI; pH 6.7) was continuously infused through the duodenal cannula at 3.0 ml/h via a syringe pump (Harvard Apparatus, Model 935, South Natick, Mass.).
After postoperative recovery, rats were infused with a lipid emulsion containing 1 μCi of [carboxyl-^14C]-triolein (specific activity 112.0 mCi/mmol, DuPont NEN, Boston, Mass.), 565 μmol triolein (95%, Sigma Chemical, St. Louis, Mo.), 3.56 μmol α-tocopherol (all-rac-a-tocopherol, 97%, Aldrich Chemical, Milwaukee, Wis.), and 396 μmol sodium taurocholic acid in 24 ml of PBS. Lymph was collected hourly for 8 hours in pre-weighed conical centrifuge tubes containing 30 μg of n-propyl gallate and 4 mg of Na2EDTA in ice-filled beakers. After lymph collection, the rats were killed by cervical dislocation, and the livers were collected. The samples were stored at about −70° C. until analysis.
From the lipid extracted (Folch et al., supra), tissue total phospholipid was measured colorimetrically by the method of Reheja et al. (J Lipid Res 1973;14:695-697). Tissue total cholesterol was determined as described by Rudel et al. (J Lipid Res 1973;21:364-366). Alpha-tocopherol was determined as described by Zaspel et al (supra) and in Example 1 above. Statistical analyses were conducted as described in Example 1.

[3] = significant difference vs control

C[N+](C)(C)C[C@H](O)CC(=O)[O-] [carnitine, L-carnitine]
α-tocopherol concentration per 100 mg total lipid ([1]; liver, ovariectomized rats fed a carnitine supplemented diet, compared with control): significantly higher | bile flow ([1]; ovariectomized Sprague-Dawley rats, diet with 150 mg/kg L-carnitine for 8 weeks, bile collected for 8 hours, no difference vs control, mean±SD): 7.9±1.4 ml/8 hours | biliary secretion of α-tocopherol for 8 hours ([1]; ovariectomized rats, diet with 150 mg/kg L-carnitine for 8 weeks, P<0.05 vs control, mean±SD): 53.1 ± 9.3 nmol | ratio of liver α-tocopherol/phospholipid ([1]; ovariectomized rats, diet with 150 mg/kg L-carnitine for 8 weeks, P=0.001 vs control): 4.8±0.6 nmol/μmol | liver concentration of α-tocopherol ([1]; ovariectomized rats, diet with 150 mg/kg L-carnitine for 8 weeks, significantly elevated vs control): 129.6 ± 19.5 nmol/g | lymphatic absorption of α-tocopherol for 8 hours ([2]; lipid emulsion with 3.56 μmol α-tocopherol infused, P<0.05 vs control): 899±200 nmol/8 h | lymph flow ([2]; lymph collected for 8 hours, no difference vs control): 22.6±4.2 ml/8 hours | absorption of 14C-triolein ([2]; lymph for 8 hours, P<0.05 vs control): 53.5±4.0 % dose | ratio of lymph α-tocopherol/cholesterol [2, 3]: 82.7±17.1 nmol/μmol | ratio of lymph α-tocopherol/phospholipid [2, 3]: 46.9±8.8 nmol/μmol

— patent publication US6476010B2, “Method for increasing intestinal absorption of fat soluble vitamins in post-menopausal women and lower animals” (Hill's Pet Nutrition, priority 2000, dated 2002)
